In patent publication US20040266749A1, “Methods for cystic fibrosis disease assessment and methods for treating anaerobic P. aeruginosa biofilms in cystic fibrosis disease” (priority 2002, published 2004):

Tested on: P. aeruginosa rhlR mutant anaerobic biofilm
Test: Anaerobic biofilm protection of rhlR mutant bacteria by carboxy-PTIO (confocal LIVE/DEAD viability)
Assay type: cell-based, Pseudomonas aeruginosa
Conditions: 5 mM carboxy-PTIO
Procedure: (b) Confocal examination of biofilms. For biofilm architecture examination, circular coverslips are glued to the bottom of 35×10 mm polystyrene tissue culture dishes with small holes in the base (Falcon). The plates are sterilized overnight by UV irradiation. Three ml of aerobic L-broth, aerobic LBN or anaerobic LBN is inoculated with ˜10^7 CFU of overnight L-broth grown culture. After 24 hr at 37° C., biofilms are washed with saline and stained with 0.5 ml of a LIVE/DEAD BacLight bacterial viability stain (Molecular Probes, Inc., Eugene, Oreg.). Images are acquired on a Zeiss LSM 510 laser scanning confocal unit attached to an Axiovert microscope using a 63×1.4 NA oil immersion objective. For two color images, samples are scanned sequentially at 488 nm and 546 nm. Syto 9 (green fluorescence) is detected through a 505-530 nm bandpass filter and propidium iodine (red fluorescence) is detected through a 560 nm longpass filter and presented in two channels of a 512×512 pixel, 8-bit image.
(a) Anaerobic biofilm protection by 2-(4-Carboxyphenyl)-4,4,5,5-tetramethylimidazoline-1-oxyl-3-oxide (carboxy-PTIO). Biofilms of rhlR mutant bacteria are grown anaerobically in the presence vs. absence of 5 mM carboxy-PTIO (Molecular Probes, Eugene, Oreg.), an NO scavenger. […]

CC1(C)N([O])C(c2ccc(C(=O)O)cc2)=[N+]([O-])C1(C)C [carboxy-PTIO, 2-(4-Carboxyphenyl)-4,4,5,5-tetramethylimidazoline-1-oxyl-3-oxide]
Biofilm zone in which protection is primarily observed (top of the biofilm) (anaerobic rhlR mutant biofilm, sagittal sectioning, FIG. 3B line 2 vs. 1): 10-15 μm | Protection of anaerobic rhlR mutant biofilm bacteria from cell death (viability) (rhlR mutant grown anaerobically as biofilm, FIG. 3A panels 2 vs. 1): protected the rhlR mutant
